Laboratory results taken from patent US20150218099A1, “METHODS FOR CONTROL OF AQUATIC WEEDS USING HERBICIDAL 4-AMINO-3-CHLORO-6-(4-CHLORO-2-FLUORO-3-METHOXYPHENYL)PYRIDINE-2-CARBOXYLIC ACIDS” (Dow AgroSciences LLC, priority 2014, published 2015).

What was measured:
[1] = test system: Curlyleaf Pondweed (PTMCR); experiment: Control of curlyleaf pondweed: aboveground dry weight after exposure to Compound 1; format: in vivo, Potamogeton crispus L.; settings: thirty days following a 24-hour exposure, untreated 0.087
From the text: (§1) Apical sections (12 to 15 cm in length) of Eurasian watermilfoil (MYPSP) and curlyleaf pondweed (PTMCR) were planted into small pots (13.5 cm length×3.75 cm diameter) containing topsoil amended with 14-14-14 slow release Osmocote® fertilizer (˜2.5 g Osmocote/kg soil). Approximately 5 to 7 cm of the apical section extended above the sediment at planting, and a sand cap was placed over the potting soil (˜2 cm deep). Plants were then transferred to 12 L acrylic tanks filled with well water. Plants were allowed to grow for 7 d before the treatment was initiated in triple replicate. […] At harvest, plants were rinsed free of algae, roots and shoots were separated and placed in paper sacks in a drying oven for 4 days at 70° C. temperature, and dry weights were measured and compared to an untreated control treatment (Table 3).

Hydrilla (HYLLI) [2] = experiment: Control of hydrilla: aboveground dry weight after exposure to Compounds 1 and 2 (14 L cylinders); format: in vivo, Hydrilla verticillata (L.f.) Royle; settings: final aboveground dry weight, SC formulation, untreated 2.48
Description: Apical sections of hydrilla (HYLLI) were planted in potting soil amended with Osmocote® fertilizer in small pots (13.5 cm length×3.75 cm diameter). A 2.54 cm sand layer was placed over the top of the potting soil. The pots containing hydrilla were placed into 14 L acrylic cylinders filled with well water and allowed to establish slight growth prior to treatment. Cylinders were then treated with Compound 1 (halauxifen-methyl 96 grams acid equivalent per liter (g ae/L) Suspension Concentrate (SC)) or Compound 2 (benzyl 4-amino-3-chloro-5-fluoro-6-(4-chloro-2-fluoro-3-methoxyphenyl)pyridine-2-carboxylate (125 grams active ingredient per liter (g ai/L) SC)) at 50, 100 and 200 parts per billion (ppb). All treatments were replicated 4 times. […]

[3] = test system: Eurasian Watermilfoil (MYPSP); experiment: Control of Eurasian watermilfoil: aboveground dry weight after exposure to Compound 1; format: in vivo, Myriophyllum spicatum L.; settings: thirty days following a 24-hour exposure, untreated 1.257
From the text: as §1

Hydrilla (HYLLI) [4] = experiment: Control of hydrilla: aboveground dry weight after submersed exposure (12 L tanks); format: in vivo, Hydrilla verticillata (L.f.) Royle; settings: final aboveground dry weight, thirty-three days following submersed exposure, untreated 1.047
From the text: Apical sections (12 to 15 centimeters (cm) in length) of hydrilla (HYLLI) were planted into small pots (13.5 cm length×3.75 cm diameter) containing topsoil amended with 14-14-14 slow release Osmocote® fertilizer (˜2.5 grams (g) Osmocote per kilogram (kg) soil). Approximately 5 to 7 cm of the apical section extended above the sediment at planting, and a sand cap was placed over the potting soil (˜2 cm deep). Plants were then transferred to 12 liter (L) acrylic tanks filled with well water. Tanks were maintained in a growth room with a 14:10 hour (h) photoperiod at 26° C. (±2° C.). Plants were allowed to grow for 17 days (d) before the treatments were initiated in triple replicate. Plants were treated with Compound 1 (halauxifen-methyl) at 0, 10, 100, 1000 parts per billion (ppb) with three replicates each. Treatments were only applied once. Plants were harvested at 33 d after initial treatment. At harvest, plants were rinsed free of algae and placed in paper sacks in a drying oven for 2 d at 70° C. temperature. Mean dry weights were determined and means separated using least significant differences (Table 1).

Row | Structure (SMILES) | Dry Weight (grams) of PTMCR ([1]; 5 ppb) [a grams] | Dry Weight (grams) of PTMCR ([1]; 10 ppb) [ab grams] | Dry Weight (grams) of PTMCR ([1]; 50 ppb) [b grams] | Dry Weight (grams) of PTMCR ([1]; 100 ppb) [b grams] | Dry Weight (grams) of HYLLI (Hydrilla (HYLLI) [2]; 50 ppb) [b grams] | Dry Weight (grams) of HYLLI (Hydrilla (HYLLI) [2]; 100 ppb) | Dry Weight (grams) of HYLLI (Hydrilla (HYLLI) [2]; 200 ppb) [b grams] | Dry Weight (grams) of MYPSP ([3]; 5 ppb) [b grams] | Dry Weight (grams) of MYPSP ([3]; 10 ppb) [b grams] | Dry Weight (grams) of MYPSP ([3]; 50 ppb) [b grams] | Dry Weight (grams) of MYPSP ([3]; 100 ppb) [b grams] | Dry Weight (grams) of HYLLI (Hydrilla (HYLLI) [4]; 10 ppb) [b grams] | Dry Weight (grams) of HYLLI (Hydrilla (HYLLI) [4]; 100 ppb) [ab grams] | Dry Weight (grams) of HYLLI (Hydrilla (HYLLI) [4]; 1000 ppb) [b grams]
1 | COC(=O)c1nc(-c2ccc(Cl)c(OC)c2F)cc(N)c1Cl [Compound 1, methyl 4-amino-3-chloro-6-(4-chloro-2-fluoro-3-methoxyphenyl)pyridine-2-carboxylate] | 0.117 | 0.043 | 0.000 | 0.000 | 0.02 | 0.64 ab grams | 0 | 0.000 | 0.000 | 0.000 | 0.000 | 0.02 | 0.003 | 0
2 | COc1c(Cl)ccc(-c2nc(C(=O)OCc3ccccc3)c(Cl)c(N)c2F)c1F [Compound 2, benzyl 4-amino-3-chloro-5-fluoro-6-(4-chloro-2-fluoro-3-methoxyphenyl)pyridine-2-carboxylate] |  |  |  |  | 0 | 0 b grams | 0 |  |  |  |  |  |  | 
